Experimental data reported in paper PMC10142861, “Synthesis, Antiproliferative Effect and In Silico LogP Prediction of BIM-23052 Analogs Containing Tyr Instead of Phe” (Pharmaceutics, 2023).
Several values for one entry are separate records, joined by “and”; a condition that tells them apart may be missing. Identical values can stand only once. Like-named read-outs stand apart in the source and are kept apart here. Square brackets hold non-standard residues; d marks the D form. Peptide text beside a SMILES is read from it.

Tests used:
in vitro = settings: mouse
Source text: (§1) The breast cancer cells MDA-MB-231 (ATCC: HTB-26) and MCF-7 (ATCC: HTB-22) were used to determine antiproliferative activity under in vitro conditions. The breast epithelial cells (MCF-10A, ATCC: CRL-10317) and mouse embryonic fibroblasts (BALB/c 3T3 clone A31, ATCC: CCL-163) were used as control. Cell cultures were purchased from American Type Cultures Collection (ATCC, Manassas, Virginia, USA). In cell culture, growth medium DMEM-high glucose, 10% (v/v) FBS and antibiotics (Sigma-Aldrich, Schnelldorf, Germany) were used. Cells were incubated at 37 °C, 5% CO2 and 95% humidity. Cells were grown in plastic flasks with a surface of 75 cm^2 (Deltalab S.L., Barcelona, Spain).
A safety test was performed on the method BALB/c 3T3 Neutral Red Uptake cytotoxicity Assay. The data generated from the in vitro cytotoxicity assay can be used to determine the safety level of the investigated substances and can predict the starting doses for in vivo toxicity assays. The cells (BALB/c 3T3, clone A31) were seeded at 1 × 10^4 cells/100 μL/well in 96-well flat-bottomed microplates. The plates were placed in a thermostat at 37 °C, 5% CO2 and 95% humidity for 24 h. Peptides were pre-dissolved in DMSO and then culture medium (DMEM) was added. The cells were treated with the BIM-23052 analogs at concentrations from […]. The treated cell culture was incubated for 24 h in a thermostat under standard conditions. The microplates were then washed twice with PBS, and Neutral Red Desorb (1% acetic acid/50% ethanol/49% water) was added. Absorbance was measured by a microplate reader at a wavelength of 540 nm.
The safety test of BIM-23052 analogues was carried out by Neutral Red Uptake cytotoxicity Assay. Cell cultures were incubated with the tested peptide analogs for 24 h.
Mean values are presented ± SD from three independent experiments, n = 6.

[1] = tested on: MCF-7 breast cancer cells; settings: for IC50: 72 h
Source text: as §1
(§2) Cell viability was determined by a colorimetric MTT-dye reduction assay. The method is based on an enzyme reaction leading to the reduction of […] (MTT) to formazan crystals. The concentration of formazan, which is directly proportional to cell viability, was determined by a spectrophotometric method. Cells (MCF-7, MDA-MB-231 and MCF-10A) were seeded at a 1 × 10^3 cells/100 µL/well in 96-well microplates. The plates were placed in a thermostat under standard conditions for 24 h. Cells were then treated with the peptide analogs at concentrations ranging from 7.5 to 2000 μm. The cells were then incubated in a thermostat for 72 h. The formazan concentration was measured spectrophotometrically by a microplate reader at a wavelength of 540 nm. The antiproliferative potential of BIM-23052 analogs was presented as IC50 values, calculated using GraphPad Prizm Software (San Diego, CA, USA).
(§3) The antiproliferative activity of BIM-23052 analogs was studied by MTT assay. The normal and tumor cell cultures were incubated with the peptide analogs with a concentration range from 7.5 to 2000 μm for 72 h. The antiproliferative activity was determined (Figure 3 and Table 3).
(§4) Figure 3 Dose–response curves for antiproliferative activity of BIM-23052 analogs determined in MCF-10A (ATCC® CRL-10317^TM), MCF-7 (ATCC® HTB-22^TM) and MDA-MB-231 (ATCC® HTB-26^TM) cell lines. Mean values are presented ± SD from three independent experiments, n = 6.

[2] = tested on: MCF-10A breast epithelial cells; settings: 72 h
Source text: as §1, §2, §3, §4

[3] = tested on: MDA-MB-231 breast cancer cells; settings: for IC50: 72 h
Source text: as §1, §2, §3, §4

[4] = read-out: Mean IC50 ± SD, Antiproliferative Effect, MCF-7, MTT, 7.5 to 2000 μm, absorbance 540 nm, mean ± SD, three independent experiments, n = 6
[5] = read-out: Mean IC50 ± SD, Antiproliferative Effect, MCF-10A, MTT, 7.5 to 2000 μm, absorbance 540 nm, mean ± SD, three independent experiments, n = 6
[6] = read-out: Mean IC50 ± SD, Antiproliferative Effect, MDA-MB-231, MTT, 7.5 to 2000 μm, absorbance 540 nm, mean ± SD, three independent experiments, n = 6
[7] = SI = IC50 MCF-10A/IC50 MDA-MB-231
[8] = BALB/c 3T3 clone A31 mouse embryonic fibroblasts

Structure (SMILES)	IC50 at 24 h (in vitro)	IC50 [1] [µM]	IC50 [3] [µM]	Selectivity index SI, MCF-7 ([1]; 2 h)	IC50 [2] [µM]	Selectivity index SI, MDA-MB-231 ([3]; 2 h)	IC50 [1, 4] [µM]	IC50 [2, 5] [µM]	IC50 [3, 6] [µM]	Selectivity index SI, MCF-7 ([1]; SI = IC50 MCF-10A/IC50 MCF-7)	Selectivity index SI, MDA-MB-231 [3, 7]	IC50 at 24 h (in vitro; [8]) [µM]
N.N.[Cl][Pt][Cl] [Cisplatin, reference compound]	–	–	–	–	–	–	43.1 ± 3.16	64.3 ± 2.11	6.94 ± 0.47	–	–	–
C[C@@H](O)[C@H](NC(=O)[C@H](Cc1ccccc1)NC(=O)[C@@H](NC(=O)[C@H](CCCCN)NC(=O)[C@@H](Cc1c[nH]c2ccccc12)NC(=O)[C@H](Cc1ccc(O)cc1)NC(=O)[C@H](Cc1ccc(O)cc1)NC(=O)[C@@H](N)Cc1ccc(O)cc1)[C@@H](C)O)C(N)=O [D6, L-Tyr^1-Tyr^2-Tyr^3-D-Trp-Lys-Thr-Phe-Thr-NH2] (H-YYY[dW]KTFT-NH2)	> 1000 µM and 1320 µM	–	–	–	–	–	359 ± 16.1	191 ± 6.8	291 ± 12.7	0.53	0.66	–
C[C@@H](O)[C@H](NC(=O)[C@H](Cc1ccc(O)cc1)NC(=O)[C@@H](NC(=O)[C@H](CCCCN)NC(=O)[C@@H](Cc1c[nH]c2ccccc12)NC(=O)[C@H](Cc1ccccc1)NC(=O)[C@H](Cc1ccc(O)cc1)NC(=O)[C@@H](N)Cc1ccc(O)cc1)[C@@H](C)O)C(N)=O [D7, L-Tyr^1-Tyr^2-Phe-D-Trp-Lys-Thr-Tyr^7-Thr-NH2] (H-YYF[dW]KTYT-NH2)	737 ± 20 µM	–	–	–	–	–	403 ± 24.9	433 ± 23.2	782 ± 19	1.07	0.55	–
C[C@@H](O)[C@H](NC(=O)[C@H](Cc1ccc(O)cc1)NC(=O)[C@@H](NC(=O)[C@H](CCCCN)NC(=O)[C@@H](Cc1c[nH]c2ccccc12)NC(=O)[C@H](Cc1ccc(O)cc1)NC(=O)[C@H](Cc1ccc(O)cc1)NC(=O)[C@@H](N)Cc1ccc(O)cc1)[C@@H](C)O)C(N)=O [D9, L-Tyr^1-Tyr^2-Tyr^3-D-Trp-Lys-Thr-Tyr^7-Thr-NH2] (H-YYY[dW]KTYT-NH2)	> 1000 µM and 1430 µM	–	–	–	–	–	477 ± 31.4	395 ± 15.3	1410 ± 19.1	0.83	0.28	–
C[C@@H](O)[C@H](NC(=O)[C@H](Cc1ccccc1)NC(=O)[C@@H](NC(=O)[C@H](CCCCN)NC(=O)[C@@H](Cc1c[nH]c2ccccc12)NC(=O)[C@H](Cc1ccccc1)NC(=O)[C@H](Cc1ccccc1)NC(=O)[C@H](N)Cc1ccc(O)cc1)[C@@H](C)O)C(N)=O [D11, D-Tyr^1-Phe-Phe-D-Trp-Lys-Thr-Phe-Thr-NH2] (H-[dY]FF[dW]KTFT-NH2)	> 1000 µM and 1630 µM	–	–	–	–	–	873 ± 26.6	864 ± 52.3	1720 ± 58.6	0.99	0.50	–

The next lines start with results.

IC50 at 24 h (in vitro)	IC50 [1] [µM]	IC50 [3] [µM]	Structure (SMILES)	Selectivity index SI, MCF-7 ([1]; 2 h)	IC50 [2] [µM]	Selectivity index SI, MDA-MB-231 ([3]; 2 h)	IC50 [1, 4] [µM]	IC50 [2, 5] [µM]	IC50 [3, 6] [µM]	Selectivity index SI, MCF-7 ([1]; SI = IC50 MCF-10A/IC50 MCF-7)	Selectivity index SI, MDA-MB-231 [3, 7]	IC50 at 24 h (in vitro; [8]) [µM]
483 ± 32.1 µM	120 ± 6.53	335 ± 15.4	C[C@@H](O)[C@H](NC(=O)[C@H](Cc1ccccc1)NC(=O)[C@@H](NC(=O)[C@H](CCCCN)NC(=O)[C@@H](Cc1c[nH]c2ccccc12)NC(=O)[C@H](Cc1ccccc1)NC(=O)[C@H](Cc1ccccc1)NC(=O)[C@H](N)Cc1ccccc1)[C@@H](C)O)C(N)=O [BIM-23052, D-Phe-Phe-Phe-D-Trp-Lys-Thr-Phe-Thr-NH2] (H-[dF]FF[dW]KTFT-NH2)	1.7	204 ± 6.32	0.61	–	–	–	–	–	–
1200 ± 100 µM	426 ± 23.9	798 ± 24.4	C[C@@H](O)[C@H](NC(=O)[C@H](Cc1ccc(O)cc1)NC(=O)[C@@H](NC(=O)[C@H](CCCCN)NC(=O)[C@@H](Cc1c[nH]c2ccccc12)NC(=O)[C@H](Cc1ccc(O)cc1)NC(=O)[C@H](Cc1ccc(O)cc1)NC(=O)[C@H](N)Cc1ccccc1)[C@@H](C)O)C(N)=O [D61, D-Phe-Tyr^2-Tyr^3-D-Trp-Lys-Thr-Tyr^7-Thr-NH2] (H-[dF]YY[dW]KTYT-NH2)	1.3	555 ± 21.3	0.69	–	–	–	–	–	> 1000
975 ± 81.7 µM	527 ± 54.2	849 ± 21.2	C[C@@H](O)[C@H](NC(=O)[C@H](Cc1ccc(O)cc1)NC(=O)[C@@H](NC(=O)[C@H](CCCCN)NC(=O)[C@@H](Cc1c[nH]c2ccccc12)NC(=O)[C@H](Cc1ccc(O)cc1)NC(=O)[C@H](Cc1ccc(O)cc1)NC(=O)[C@H](N)Cc1ccc(O)cc1)[C@@H](C)O)C(N)=O [D91, D-Tyr^1-Tyr^2-Tyr^3-D-Trp-Lys-Thr-Tyr^7-Thr-NH2] (H-[dY]YY[dW]KTYT-NH2)	1.02	540 ± 27.2	0.64	–	–	–	–	–	–
1400 ± 52.3 µM	717 ± 20.8	1400 ± 20	C[C@@H](O)[C@H](NC(=O)[C@H](Cc1ccccc1)NC(=O)[C@@H](NC(=O)[C@H](CCCCN)NC(=O)[C@@H](Cc1c[nH]c2ccccc12)NC(=O)[C@H](Cc1ccc(O)cc1)NC(=O)[C@H](Cc1ccc(O)cc1)NC(=O)[C@H](N)Cc1ccccc1)[C@@H](C)O)C(N)=O [D101, D-Phe-Tyr^2-Tyr^3-D-Trp-Lys-Thr-Phe-Thr-NH2] (H-[dF]YY[dW]KTFT-NH2)	0.84	604 ± 24.7	0.43	–	–	–	–	–	> 1000
483 ± 33.9 µM	235 ± 14.3	241 ± 13.4	C[C@@H](O)[C@H](NC(=O)[C@H](Cc1ccc(O)cc1)NC(=O)[C@@H](NC(=O)[C@H](CCCCN)NC(=O)[C@@H](Cc1c[nH]c2ccccc12)NC(=O)[C@H](Cc1ccccc1)NC(=O)[C@H](Cc1ccccc1)NC(=O)[C@H](N)Cc1ccccc1)[C@@H](C)O)C(N)=O [DD8, D-Phe-Phe-Phe-D-Trp-Lys-Thr-Tyr^7-Thr-NH2] (H-[dF]FF[dW]KTYT-NH2)	0.69	161 ± 7.97	0.67	–	–	–	–	–	–
